Values quoted from earlier work as cited in article PMC9851200, “Multiparameter phenotypic screening for endogenous TFEB and TFE3 translocation identifies novel chemical series modulating lysosome function” (Autophagy, 2022).

Key:
Parameters in all cases: method as in original PKIS2 published data
[1] = target: kinases (KINOMEscan panel) (Homo sapiens, UniProt P17948); conditions: kinase FLT1; Published KINOMEscan; ref original PKIS2 published data; cited from earlier work
[2] = target: T1, kinases (KINOMEscan panel) (Homo sapiens, UniProt Q9UF33); conditions: kinase EPHA6; Published KINOMEscan; ref original PKIS2 published data; cited from earlier work
T1 sequence (Q9UF33 23-1036): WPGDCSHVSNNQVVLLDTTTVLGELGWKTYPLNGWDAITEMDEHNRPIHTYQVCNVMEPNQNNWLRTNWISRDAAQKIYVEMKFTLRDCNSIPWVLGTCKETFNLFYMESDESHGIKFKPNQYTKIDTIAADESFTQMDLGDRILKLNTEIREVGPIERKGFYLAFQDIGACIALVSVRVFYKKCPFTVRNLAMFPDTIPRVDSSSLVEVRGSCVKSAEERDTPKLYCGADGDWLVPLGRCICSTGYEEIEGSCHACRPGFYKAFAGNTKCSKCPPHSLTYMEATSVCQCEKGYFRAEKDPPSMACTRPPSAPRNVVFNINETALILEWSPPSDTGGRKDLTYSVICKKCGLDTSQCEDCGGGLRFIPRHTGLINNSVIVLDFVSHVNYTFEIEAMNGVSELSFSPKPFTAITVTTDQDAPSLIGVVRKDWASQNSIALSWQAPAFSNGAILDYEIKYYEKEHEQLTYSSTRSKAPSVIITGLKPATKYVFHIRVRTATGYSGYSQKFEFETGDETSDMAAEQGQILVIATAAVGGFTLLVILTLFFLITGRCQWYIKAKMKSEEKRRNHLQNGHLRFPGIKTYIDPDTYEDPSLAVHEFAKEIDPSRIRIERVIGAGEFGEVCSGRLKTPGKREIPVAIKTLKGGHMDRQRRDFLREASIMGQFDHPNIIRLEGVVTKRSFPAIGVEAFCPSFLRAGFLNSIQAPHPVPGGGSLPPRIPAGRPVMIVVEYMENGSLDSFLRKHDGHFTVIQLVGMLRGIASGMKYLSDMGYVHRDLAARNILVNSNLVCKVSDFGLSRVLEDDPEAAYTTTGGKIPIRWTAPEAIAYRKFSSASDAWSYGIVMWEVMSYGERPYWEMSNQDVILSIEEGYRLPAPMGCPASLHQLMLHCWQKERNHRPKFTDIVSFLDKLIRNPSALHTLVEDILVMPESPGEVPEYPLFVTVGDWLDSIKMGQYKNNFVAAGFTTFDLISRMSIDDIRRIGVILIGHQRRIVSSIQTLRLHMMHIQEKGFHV

[3] = target: T2, kinases (KINOMEscan panel) (Homo sapiens, UniProt P29323); conditions: EPHB2; Published KINOMEscan; ref original PKIS2 published data; cited from earlier work
T2 sequence (P29323 19-1055): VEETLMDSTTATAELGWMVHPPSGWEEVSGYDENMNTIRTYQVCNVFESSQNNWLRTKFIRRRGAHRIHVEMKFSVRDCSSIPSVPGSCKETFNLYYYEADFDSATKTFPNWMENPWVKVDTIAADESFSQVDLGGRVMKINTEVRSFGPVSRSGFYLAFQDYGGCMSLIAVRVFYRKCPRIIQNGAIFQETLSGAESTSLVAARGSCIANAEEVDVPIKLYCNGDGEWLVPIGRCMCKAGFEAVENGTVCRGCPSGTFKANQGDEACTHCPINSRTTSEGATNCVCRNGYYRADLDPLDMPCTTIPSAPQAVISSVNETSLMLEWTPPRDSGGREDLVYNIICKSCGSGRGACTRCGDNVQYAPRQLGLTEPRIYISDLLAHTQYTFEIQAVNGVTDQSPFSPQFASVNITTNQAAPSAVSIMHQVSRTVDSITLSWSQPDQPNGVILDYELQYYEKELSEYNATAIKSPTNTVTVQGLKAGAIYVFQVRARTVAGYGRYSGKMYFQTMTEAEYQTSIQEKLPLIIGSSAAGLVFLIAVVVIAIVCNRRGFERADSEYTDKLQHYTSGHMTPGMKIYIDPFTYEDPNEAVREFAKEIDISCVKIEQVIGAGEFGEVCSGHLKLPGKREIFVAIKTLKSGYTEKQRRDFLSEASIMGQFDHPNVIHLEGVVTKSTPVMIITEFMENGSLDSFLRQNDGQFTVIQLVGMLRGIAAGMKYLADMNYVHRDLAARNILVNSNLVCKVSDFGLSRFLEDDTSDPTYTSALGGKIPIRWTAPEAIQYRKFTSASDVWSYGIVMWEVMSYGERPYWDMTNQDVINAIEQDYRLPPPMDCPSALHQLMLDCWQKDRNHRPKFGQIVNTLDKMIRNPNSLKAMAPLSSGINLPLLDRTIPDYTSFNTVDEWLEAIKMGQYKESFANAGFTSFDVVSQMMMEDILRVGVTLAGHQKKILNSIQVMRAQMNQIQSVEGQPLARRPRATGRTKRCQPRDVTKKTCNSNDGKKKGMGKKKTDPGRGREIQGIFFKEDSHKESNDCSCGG

[4] = target: T3, kinases (KINOMEscan panel) (Homo sapiens, UniProt P51813); conditions: BMX; Published KINOMEscan; ref original PKIS2 published data; cited from earlier work
T3 sequence (P51813 1-675): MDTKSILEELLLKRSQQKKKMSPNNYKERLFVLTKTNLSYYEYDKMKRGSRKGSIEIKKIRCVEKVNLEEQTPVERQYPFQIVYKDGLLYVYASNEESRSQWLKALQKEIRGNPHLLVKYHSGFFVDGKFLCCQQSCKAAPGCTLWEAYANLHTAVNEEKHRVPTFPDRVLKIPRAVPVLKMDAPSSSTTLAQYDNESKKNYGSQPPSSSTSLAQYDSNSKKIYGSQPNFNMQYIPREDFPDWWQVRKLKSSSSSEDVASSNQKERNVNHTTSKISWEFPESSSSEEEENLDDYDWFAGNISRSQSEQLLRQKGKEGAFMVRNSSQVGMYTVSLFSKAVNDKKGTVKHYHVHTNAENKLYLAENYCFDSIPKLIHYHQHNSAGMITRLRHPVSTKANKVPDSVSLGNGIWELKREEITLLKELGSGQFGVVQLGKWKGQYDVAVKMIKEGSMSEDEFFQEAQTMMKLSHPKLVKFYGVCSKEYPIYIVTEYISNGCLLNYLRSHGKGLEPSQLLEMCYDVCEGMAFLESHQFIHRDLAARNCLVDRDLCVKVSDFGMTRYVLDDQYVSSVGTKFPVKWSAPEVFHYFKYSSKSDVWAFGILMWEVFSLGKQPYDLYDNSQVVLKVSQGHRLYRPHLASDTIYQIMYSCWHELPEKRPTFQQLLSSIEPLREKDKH

kinases (KINOMEscan panel) (Homo sapiens, UniProt P17948), sequence (P17948 27-1338): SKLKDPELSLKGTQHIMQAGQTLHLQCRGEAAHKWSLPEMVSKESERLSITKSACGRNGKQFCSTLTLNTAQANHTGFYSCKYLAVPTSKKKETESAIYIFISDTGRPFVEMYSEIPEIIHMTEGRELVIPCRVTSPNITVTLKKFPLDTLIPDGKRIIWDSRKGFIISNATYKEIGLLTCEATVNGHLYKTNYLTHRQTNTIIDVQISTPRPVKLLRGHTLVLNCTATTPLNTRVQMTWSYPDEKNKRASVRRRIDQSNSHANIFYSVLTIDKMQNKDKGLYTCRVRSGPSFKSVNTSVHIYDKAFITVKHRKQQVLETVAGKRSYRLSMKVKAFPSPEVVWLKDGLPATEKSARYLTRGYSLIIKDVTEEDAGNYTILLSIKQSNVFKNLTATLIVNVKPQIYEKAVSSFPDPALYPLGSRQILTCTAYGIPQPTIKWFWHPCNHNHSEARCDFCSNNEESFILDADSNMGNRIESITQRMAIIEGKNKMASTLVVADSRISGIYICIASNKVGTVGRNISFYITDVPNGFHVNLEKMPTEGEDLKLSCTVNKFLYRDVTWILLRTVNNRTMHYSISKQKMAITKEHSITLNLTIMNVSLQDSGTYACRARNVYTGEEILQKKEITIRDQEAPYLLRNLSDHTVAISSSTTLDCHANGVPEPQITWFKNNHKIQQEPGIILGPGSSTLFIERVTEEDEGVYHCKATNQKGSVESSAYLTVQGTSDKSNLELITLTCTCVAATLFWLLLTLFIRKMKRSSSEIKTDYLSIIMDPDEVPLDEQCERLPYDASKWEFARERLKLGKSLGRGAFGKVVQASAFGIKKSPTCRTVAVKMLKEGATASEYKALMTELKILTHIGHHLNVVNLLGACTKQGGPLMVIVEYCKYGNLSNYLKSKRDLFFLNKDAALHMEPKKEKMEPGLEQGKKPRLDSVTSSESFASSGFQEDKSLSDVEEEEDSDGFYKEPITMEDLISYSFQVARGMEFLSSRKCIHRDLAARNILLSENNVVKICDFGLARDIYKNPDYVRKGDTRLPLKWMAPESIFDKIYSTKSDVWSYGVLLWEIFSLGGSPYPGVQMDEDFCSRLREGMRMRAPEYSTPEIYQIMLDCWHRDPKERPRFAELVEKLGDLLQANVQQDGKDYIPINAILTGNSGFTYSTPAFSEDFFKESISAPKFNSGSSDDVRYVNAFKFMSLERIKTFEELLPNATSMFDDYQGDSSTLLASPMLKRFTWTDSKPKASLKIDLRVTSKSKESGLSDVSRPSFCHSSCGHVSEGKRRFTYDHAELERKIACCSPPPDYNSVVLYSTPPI

Q: With `Cc1cccc(-c2nc(Nc3ccncc3)c3ccccc3n2)n1` [NK215] as the compound, how does the “KINOMEscan FLT1” value [1] read?
A: The value was 0.

Q: And the “KINOMEscan EPHA6” value [2]?
A: The value was 0.

Q: And the “KINOMEscan EPHB2” value [3]?
A: The value was 16.

Q: And the “KINOMEscan BMX” value [4]?
A: Its value is 6.
